From ChEMBL document CHEMBL3885861, “Open TG-GATES”

Species: Rattus norvegicus
Assay: Open TG-GATES - Regimen: Single
Format: toxicity, organism-based, Sprague-Dawley
Design: regimen Single, gender Male, age 6 weeks
Details: in vivo, po, route gavage; for gamma-GTP / ALP / ALT / AST / BUN / CRE / Ca / Cl / DBIL / GLC / IP / K / LDH / Na / PL / RALB / TBIL / TC / TG / TP: tissue Plasma; for APTT / Bas / Eos / Fbg / Hb / Ht / Lym / MCH / MCHC / Mono / Neu / Plat / RBC / Ret / WBC: tissue Blood; for KIDNEY_L / KIDNEY_R / KIDNEY_TOTAL: tissue Kidney; for LIVER: tissue Liver
[1] = 10 mg/kg, 3 h, dose level Middle
[2] = 10 mg/kg, 6 h, dose level Middle
[3] = 10 mg/kg, 9 h, dose level Middle
[4] = 10 mg/kg, 24 h, dose level Middle

With `O=C(CCCN1CCC(O)(c2ccc(Cl)cc2)CC1)c1ccc(F)cc1` [HALOPERIDOL] the gamma-GTP (3 mg/kg, 24 h, dose level Low) was 1.6 IU/L, the TERMINAL_BW [1] was 204.5 g and the APTT [1] was 17.3 s. It also gave a Bas [1] of 0%, an Eos [1] of 0.4% and a Fbg [1] of 202.4 mg/dL. It also gave a Hb [1] of 13.2 g/dL, a Ht [1] of 39.7% and a Lym [1] of 71.2%. It also gave an MCH [1] of 22 pg, an MCHC [1] of 33.1% and a Mono [1] of 12%. It also gave a Neu [1] of 16.4%, a Plat [1] of 97.9 x10_4/uL and an RBC [1] of 598.8 x10_4/ul. For the same compound, the Ret [1] was 8.8%, the WBC [1] was 87.7 x10_2/uL and the KIDNEY_L [1] was 0.9 g. The KIDNEY_R [1] was 1 g, the KIDNEY_TOTAL [1] was 1.9 g and the LIVER [1] was 9.9 g. For the same compound, the ALP [1] was 802.2 IU/L, the ALT [1] was 36 IU/L and the AST [1] was 59.8 IU/L. It also gave a BUN [1] of 11.6 mg/dL, a CRE [1] of 0.6 mg/dL and a Ca [1] of 10.8 mg/dL. For the same compound, the Cl [1] was 107 meq/L, the DBIL [1] was 0.02 mg/dL and the GLC [1] was 216.2 mg/dL. It also gave an IP [1] of 10.1 mg/dL, a K [1] of 4.5 meq/L and an LDH [1] of 107.4 IU/L. For the same compound, the Na [1] was 140 meq/L, the PL [1] was 141.2 mg/dL and the RALB [1] was 3.5 g/dL. For the same compound, the TBIL [1] was 0.3 mg/dL, the TC [1] was 80.8 mg/dL and the TG [1] was 30 mg/dL. It also gave a TP [1] of 5.5 g/dL, a gamma-GTP [1] of 1.2 IU/L and a TERMINAL_BW [2] of 201.2 g. The APTT [2] was 16.6 s, the Bas [2] was 0% and the Eos [2] was 0.8%. It also gave a Fbg [2] of 201.2 mg/dL, a Hb [2] of 13.8 g/dL and a Ht [2] of 41.9%. For the same compound, the Lym [2] was 69.8%, the MCH [2] was 21.6 pg and the MCHC [2] was 32.9%. The Mono [2] was 5.5%, the Neu [2] was 24% and the Plat [2] was 99.7 x10_4/uL. It also gave an RBC [2] of 637.2 x10_4/ul, a Ret [2] of 8.6% and a WBC [2] of 75.3 x10_2/uL. The KIDNEY_L [2] was 0.9 g, the KIDNEY_R [2] was 1 g and the KIDNEY_TOTAL [2] was 1.9 g. The LIVER [2] was 8.9 g, the ALP [2] was 922.8 IU/L and the ALT [2] was 31.8 IU/L. It also gave an AST [2] of 56.5 IU/L, a BUN [2] of 8.8 mg/dL and a CRE [2] of 0.4 mg/dL. For the same compound, the Ca [2] was 10.4 mg/dL, the Cl [2] was 107.2 meq/L and the DBIL [2] was 0.025 mg/dL. It also gave a GLC [2] of 189.2 mg/dL, an IP [2] of 10.2 mg/dL and a K [2] of 4.7 meq/L. For the same compound, the LDH [2] was 111 IU/L, the Na [2] was 139.5 meq/L and the PL [2] was 130.5 mg/dL. The RALB [2] was 3.5 g/dL, the TBIL [2] was 0.4 mg/dL and the TC [2] was 75.2 mg/dL. The TG [2] was 29.5 mg/dL, the TP [2] was 5.5 g/dL and the gamma-GTP [2] was 1.2 IU/L. It also gave a TERMINAL_BW [3] of 195.8 g, an APTT [3] of 17 s and a Bas [3] of 0%. The Eos [3] was 0.4%, the Fbg [3] was 210 mg/dL and the Hb [3] was 13.9 g/dL. It also gave a Ht [3] of 41.8%, a Lym [3] of 75.8% and an MCH [3] of 21.8 pg. For the same compound, the MCHC [3] was 33.4%, the Mono [3] was 7.8% and the Neu [3] was 16%. The Plat [3] was 101.8 x10_4/uL, the RBC [3] was 641.2 x10_4/ul and the Ret [3] was 8.6%. For the same compound, the WBC [3] was 63.2 x10_2/uL, the KIDNEY_L [3] was 0.9 g and the KIDNEY_R [3] was 0.9 g. The KIDNEY_TOTAL [3] was 1.7 g, the LIVER [3] was 8.4 g and the ALP [3] was 812.8 IU/L. The ALT [3] was 27.8 IU/L, the AST [3] was 53.8 IU/L and the BUN [3] was 9.2 mg/dL. It also gave a CRE [3] of 0.6 mg/dL, a Ca [3] of 10.1 mg/dL and a Cl [3] of 107 meq/L. For the same compound, the DBIL [3] was 0.024 mg/dL, the GLC [3] was 200.2 mg/dL and the IP [3] was 11.1 mg/dL. It also gave a K [3] of 4.6 meq/L, an LDH [3] of 100 IU/L and a Na [3] of 139.6 meq/L. For the same compound, the PL [3] was 134.2 mg/dL, the RALB [3] was 3.7 g/dL and the TBIL [3] was 0.4 mg/dL. It also gave a TC [3] of 76.4 mg/dL, a TG [3] of 25.8 mg/dL and a TP [3] of 5.5 g/dL. The gamma-GTP [3] was 2.6 IU/L, the TERMINAL_BW [4] was 213.1 g and the APTT [4] was 16.2 s. For the same compound, the Bas [4] was 0%, the Eos [4] was 1.2% and the Fbg [4] was 193.4 mg/dL. It also gave a Hb [4] of 14.2 g/dL, a Ht [4] of 42.4% and a Lym [4] of 82%. The MCH [4] was 21.9 pg, the MCHC [4] was 33.5% and the Mono [4] was 6.8%. It also gave a Neu [4] of 10%, a Plat [4] of 114.7 x10_4/uL and an RBC [4] of 648 x10_4/ul. For the same compound, the Ret [4] was 8.2%, the WBC [4] was 76.5 x10_2/uL and the KIDNEY_L [4] was 1 g. The KIDNEY_R [4] was 0.9 g, the KIDNEY_TOTAL [4] was 1.9 g and the LIVER [4] was 10.5 g. For the same compound, the ALP [4] was 1019.6 IU/L, the ALT [4] was 32.6 IU/L and the AST [4] was 62.2 IU/L. It also gave a BUN [4] of 23.8 mg/dL, a CRE [4] of 0.5 mg/dL and a Ca [4] of 11.2 mg/dL. It also gave a Cl [4] of 104.6 meq/L, a DBIL [4] of 0.034 mg/dL and a GLC [4] of 182.4 mg/dL. For the same compound, the IP [4] was 8.2 mg/dL, the K [4] was 5 meq/L and the LDH [4] was 102.4 IU/L. For the same compound, the Na [4] was 140 meq/L, the PL [4] was 160.2 mg/dL and the RALB [4] was 3.9 g/dL. It also gave a TBIL [4] of 0.3 mg/dL, a TC [4] of 79.8 mg/dL and a TP [4] of 6 g/dL. The gamma-GTP [4] was 1 IU/L.
